Data reported in US10654808B2, “Tyrosine kinase inhibitor and pharmaceutical composition comprising same” (GUANGDONG RAYNOVENT BIOTECH CO., LTD., priority 2015, dated 2020).

Columns and labels:
VEGFR2 = molecular target: T1, VEGFR2 (Homo sapiens, UniProt P35968); assay: Z'-LYTE in vitro enzyme activity assay, VEGFR2; assay type: biochemical; details: 100 μM ATP, 60 minutes, room temperature; read-out: IC50 detected by Z'-LYTE, VEGFR2
T1 construct: purchased Life technology
Method in brief: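 Reaction with 3 nM VEGFR2, 2 μM Tyr1 peptide and 100 μM ATP in HEPES pH 7.5/MgCl2/EGTA/BRIJ-35, 1% DMSO, 60 min at room temperature; development reagent then 60 min at 23° C. Compounds tested at 11 threefold dilutions, 10 μM–0.17 nM final, in duplicate; IC50 from 4-parameter fit of inhibition.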

FGFR1 = molecular target: T2, FGFR1 (Homo sapiens, UniProt P11362); assay: Z'-LYTE in vitro enzyme activity assay, FGFR1; assay type: biochemical; details: 25 μM ATP, 60 minutes, room temperature; read-out: IC50 detected by Z'-LYTE, FGFR1
T2 construct: purchased Life technology
Method in brief: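 Z′-LYTE FRET assay with 1 nM FGFR1, 2 μM Tyr4 peptide and 25 μM ATP in HEPES pH 7.5 with Mg/Mn, 60 min at room temperature, then development 60 min at 23 °C. Compounds tested at 11 concentrations from 10 μM to 0.17 nM in 1% DMSO. IC50 from 4-parameter fit of inhibition.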

PDGFRB = molecular target: T3, PDGFRB (Homo sapiens, UniProt P09619); assay: Z'-LYTE in vitro enzyme activity assay, PDGFRB; assay type: biochemical; details: 100 μM ATP, 60 minutes, room temperature; read-out: IC50 detected by Z'-LYTE, PDGFRB
T3 construct: purchased Millipore
Method in brief: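 Z′-LYTE FRET kinase assay using 40 nM PDGFRB, 2 μM Tyr4 peptide and 100 μM ATP in HEPES pH 7.5 with Mg2+/Mn2+ and 1% DMSO. The reaction ran 60 min at room temperature, followed by development for 60 min at 23 °C. IC50 values came from 4-parameter fits over 11 concentrations (10 μM–0.17 nM).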

HUVEC = assay: CellTiter-Glo luminescent cell viability assay, HUVEC stimulated with hVEGF-165; assay type: cell-based; details: Homo sapiens, hVEGF-165 20 ng/ml, 72 hours, read-out: IC50 detected by CellTiter-Glo, HUVEC
Description: The intracellular ATP changes were measured by CellTiter-Glo® Luminescent Cell Viability Assay. The IC50 value of the compounds was used as an index to evaluate the inhibitory effect of the compounds on HUVEC in vitro.
HUVEC cell line (ATCC), EGM-2 BulletKit (Lonza), hVEGF-165 (Cell Signaling), trypsin (Invitrogen), DPBS (Hyclone), 384 cell plate (Greiner), 384 compound plate (Greiner), CO2 incubator (Thermo), centrifuge (Eppendorf), Vi-cell cell counter (Beckman Coulter), Bravo Automatic Liquid Workstation (Agilent), Envision (Perkin Elmer)
B: Cell plating: HUVEC cells were resuspended with starved medium (only containing 2% FBS and 0.1% GA-1000) and diluted to a concentration of 20,000/mL. The diluted cells were added to a 384 plate (Greiner), 50 μl per well. The cell plates were placed in a 37° C., 5% CO2 incubator overnight.
C: Drug addition: the test compounds were diluted 4 times to obtain a total of 10 doses at a final concentration of 10 uM to 0.038 nM, two parallel wells. The middle plate was added with 47.6 uL of starved medium per well. 2.4 μl of compounds was transferred from a gradient dilution compound plate to a middle plate and mixed well. 5 μl of liquid was transferred from the middle plate to a cell plate. Incubate for 1 hour at 37° C. in a 5% CO2 incubator, 5 μl of starved medium containing hVEGF-165 (the final concentration was 20 ng/ml) and Heparin (the final concentration was 1 ng/m) were added and incubated at 37° C. in a 5% CO2 incubator for 72 hours.
D: After 72 hours, 30 μl of assay reagents was added and incubated at room temperature for 10-30 minutes, Envision was used to read the plate.
The reading was converted into suppression rate (%) (Max−Sample)/(Max−Min)*100%. Parameter curve fitting (Model 205 in XLFIT5, iDBS) was used to measure to obtain IC50 data.

T2 sequence (P11362 22-822): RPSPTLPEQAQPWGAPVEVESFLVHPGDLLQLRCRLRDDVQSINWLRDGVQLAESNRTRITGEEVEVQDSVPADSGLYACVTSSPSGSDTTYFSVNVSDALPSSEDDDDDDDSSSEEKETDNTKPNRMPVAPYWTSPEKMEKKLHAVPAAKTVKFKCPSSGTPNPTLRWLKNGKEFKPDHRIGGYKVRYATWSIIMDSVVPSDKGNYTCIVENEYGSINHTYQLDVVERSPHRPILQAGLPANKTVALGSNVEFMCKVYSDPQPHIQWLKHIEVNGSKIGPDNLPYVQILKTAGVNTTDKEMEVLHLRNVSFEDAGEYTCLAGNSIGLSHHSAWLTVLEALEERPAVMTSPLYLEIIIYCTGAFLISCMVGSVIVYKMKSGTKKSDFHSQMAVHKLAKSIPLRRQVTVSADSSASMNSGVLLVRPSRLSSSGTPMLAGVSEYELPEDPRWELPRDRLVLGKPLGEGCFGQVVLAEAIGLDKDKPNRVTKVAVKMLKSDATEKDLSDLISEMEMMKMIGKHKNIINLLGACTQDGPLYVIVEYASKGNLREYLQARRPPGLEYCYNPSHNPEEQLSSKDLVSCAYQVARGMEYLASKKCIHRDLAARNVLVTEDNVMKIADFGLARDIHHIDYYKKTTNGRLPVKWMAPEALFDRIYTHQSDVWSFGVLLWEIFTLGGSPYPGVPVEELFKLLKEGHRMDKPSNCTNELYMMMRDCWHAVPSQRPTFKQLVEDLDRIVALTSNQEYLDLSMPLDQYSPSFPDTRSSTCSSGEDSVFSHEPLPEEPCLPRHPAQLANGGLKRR
T1 sequence (P35968 20-1356): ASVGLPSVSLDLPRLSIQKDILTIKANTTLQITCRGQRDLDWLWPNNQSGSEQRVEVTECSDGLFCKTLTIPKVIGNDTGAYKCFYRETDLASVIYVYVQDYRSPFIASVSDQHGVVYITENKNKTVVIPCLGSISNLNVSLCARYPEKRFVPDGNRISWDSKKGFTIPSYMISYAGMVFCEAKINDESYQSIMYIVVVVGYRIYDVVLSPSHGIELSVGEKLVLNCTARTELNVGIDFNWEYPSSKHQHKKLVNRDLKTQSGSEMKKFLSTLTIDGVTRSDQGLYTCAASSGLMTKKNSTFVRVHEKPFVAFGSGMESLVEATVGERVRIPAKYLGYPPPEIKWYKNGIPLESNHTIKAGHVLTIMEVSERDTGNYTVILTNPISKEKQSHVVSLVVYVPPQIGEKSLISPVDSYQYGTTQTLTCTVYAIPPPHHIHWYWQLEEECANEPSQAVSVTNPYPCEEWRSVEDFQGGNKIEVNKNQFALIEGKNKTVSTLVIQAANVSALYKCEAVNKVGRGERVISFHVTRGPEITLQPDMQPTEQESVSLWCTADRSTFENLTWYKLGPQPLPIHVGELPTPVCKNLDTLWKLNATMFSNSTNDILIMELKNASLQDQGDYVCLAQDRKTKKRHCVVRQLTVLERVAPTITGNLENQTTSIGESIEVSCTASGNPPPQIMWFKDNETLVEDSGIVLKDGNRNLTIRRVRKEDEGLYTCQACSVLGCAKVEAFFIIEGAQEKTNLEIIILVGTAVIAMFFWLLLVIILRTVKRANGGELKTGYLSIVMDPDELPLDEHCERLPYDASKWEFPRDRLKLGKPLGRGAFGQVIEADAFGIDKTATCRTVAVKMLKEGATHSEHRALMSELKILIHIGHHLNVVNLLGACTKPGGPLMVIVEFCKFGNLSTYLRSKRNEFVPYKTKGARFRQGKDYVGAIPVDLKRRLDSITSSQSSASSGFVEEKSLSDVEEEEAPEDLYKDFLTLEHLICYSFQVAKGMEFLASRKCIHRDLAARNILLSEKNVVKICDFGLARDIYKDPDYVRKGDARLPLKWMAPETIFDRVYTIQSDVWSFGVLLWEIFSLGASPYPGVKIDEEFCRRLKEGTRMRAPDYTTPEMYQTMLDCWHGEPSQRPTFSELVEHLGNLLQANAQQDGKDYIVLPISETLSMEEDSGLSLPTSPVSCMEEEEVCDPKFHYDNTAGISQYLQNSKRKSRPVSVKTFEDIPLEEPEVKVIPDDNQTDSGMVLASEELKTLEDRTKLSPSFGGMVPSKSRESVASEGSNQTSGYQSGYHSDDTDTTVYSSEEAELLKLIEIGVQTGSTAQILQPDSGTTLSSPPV
T3 sequence (P09619 33-1106): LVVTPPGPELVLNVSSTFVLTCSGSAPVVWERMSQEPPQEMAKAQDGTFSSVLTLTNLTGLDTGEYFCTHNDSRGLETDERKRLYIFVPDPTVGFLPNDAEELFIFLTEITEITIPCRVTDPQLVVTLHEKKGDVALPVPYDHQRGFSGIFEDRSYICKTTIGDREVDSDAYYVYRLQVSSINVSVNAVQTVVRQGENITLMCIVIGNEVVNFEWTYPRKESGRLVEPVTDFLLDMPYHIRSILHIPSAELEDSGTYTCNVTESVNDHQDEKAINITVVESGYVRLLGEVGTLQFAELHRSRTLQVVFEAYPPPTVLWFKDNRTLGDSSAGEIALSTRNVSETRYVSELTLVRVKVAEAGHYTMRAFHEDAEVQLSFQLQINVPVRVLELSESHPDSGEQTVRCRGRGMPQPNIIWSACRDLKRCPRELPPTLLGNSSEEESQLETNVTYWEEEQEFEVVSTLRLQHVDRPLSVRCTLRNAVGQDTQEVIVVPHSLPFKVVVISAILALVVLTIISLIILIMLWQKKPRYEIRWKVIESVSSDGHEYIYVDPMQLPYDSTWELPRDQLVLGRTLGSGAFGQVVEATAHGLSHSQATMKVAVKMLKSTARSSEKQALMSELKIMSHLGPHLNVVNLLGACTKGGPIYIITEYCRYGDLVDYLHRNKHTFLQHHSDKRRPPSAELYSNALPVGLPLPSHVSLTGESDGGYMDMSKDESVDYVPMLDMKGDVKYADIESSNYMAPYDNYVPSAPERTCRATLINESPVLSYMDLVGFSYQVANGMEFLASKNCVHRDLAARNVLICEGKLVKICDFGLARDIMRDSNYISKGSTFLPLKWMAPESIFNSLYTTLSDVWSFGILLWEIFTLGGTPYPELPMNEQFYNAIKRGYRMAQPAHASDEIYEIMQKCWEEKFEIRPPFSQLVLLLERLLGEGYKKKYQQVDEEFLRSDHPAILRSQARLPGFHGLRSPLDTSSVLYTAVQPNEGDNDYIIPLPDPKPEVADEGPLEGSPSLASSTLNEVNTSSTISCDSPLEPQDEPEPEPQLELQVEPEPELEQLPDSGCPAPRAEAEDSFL

| IC50 (VEGFR2) [nM] | IC50 (FGFR1) [nM] | IC50 (PDGFRB) [nM] | SMILES | IC50 (HUVEC) [nM] |
| --- | --- | --- | --- | --- |
| 50 to 200 | 200 to 1000 | 50 to 200 | COc1cc2nccc(Oc3ccc(NC(=S)Nc4ccccc4)c(Cl)c3)c2cc1C(N)=O [Example 2] | < 100 |
| < 50 | 200 to 1000 | 50 to 200 | COc1cc2nccc(Oc3ccc(NC(=S)NC4CCC4)c(Cl)c3)c2cc1C(N)=O [Example 6] | < 100 |
| < 50 | 50 to 200 | 50 to 200 | COc1cc2nccc(Oc3ccc(NC(=S)NCC(F)F)c(Cl)c3)c2cc1C(N)=O [Example 12] | < 100 |
| < 50 | 200 to 1000 | 50 to 200 | COc1cc2nccc(Oc3ccc(NC(=S)NCC(F)(F)F)c(Cl)c3)c2cc1C(N)=O [Example 16] | < 100 |
| < 50 | 200 to 1000 | 50 to 200 | COc1cc2nccc(Oc3ccc(NC(=S)N[C@H](C)CO)c(Cl)c3)c2cc1C(N)=O [Example 21] | < 100 |
| < 50 | 50 to 200 | < 50 | CNC(=S)Nc1ccc(Oc2ccnc3cc(OC)c(C(N)=O)cc23)cc1Cl [Example 28] | < 100 |
| < 50 | 200 to 1000 | 50 to 200 | COc1cc2nccc(Oc3ccc(NC(=S)NC4CC4)c(Cl)c3)c2cc1C(=O)NO [Example 50] | 100 to 1000 |
| 50 to 200 | 50 to 200 | 200 to 1000 | COc1cc2nccc(Oc3ccc(NC(=S)N(C)C)c(Cl)c3)c2cc1C(N)=O [Example 55] | 100 to 1000 |
| < 50 | 50 to 200 | < 50 | CCNC(=S)Nc1ccc(Oc2ccnc3cc(OC)c(C(N)=O)cc23)cc1Cl [Example 56] | < 100 |
| < 50 | 200 to 1000 | 50 to 200 | CCOCCCOc1cc2nccc(Oc3ccc(NC(=S)NC4CC4)c(Cl)c3)c2cc1C(N)=O [Example 58] | 100 to 1000 |
| < 50 | 200 to 1000 | 50 to 200 | COc1cc2nccc(Oc3ccc(NC(=S)NCC4CC4)c(Cl)c3)c2cc1C(N)=O [Example 59] | 100 to 1000 |
| < 50 | 200 to 1000 | < 50 | COc1cc2nccc(Oc3ccc(NC(=S)Nc4cnn(C(C)C)c4)c(Cl)c3)c2cc1C(N)=O [Example 70] | < 100 |
| < 50 | 50 to 200 | < 50 | COc1cc2nccc(Oc3ccc(NC(=S)NC4CC4)c(Cl)c3F)c2cc1C(N)=O [Example 78] | < 100 |
| < 50 | 50 to 200 | 50 to 200 | COc1cc2nccc(Oc3ccc(NC(=S)N4CC(F)(F)C4)c(Cl)c3F)c2cc1C(N)=O [Example 95] | 100 to 1000 |
| < 50 | < 50 | 50 to 200 | COc1cc2nccc(Oc3ccc(NC(=S)N4CCCC4)c(Cl)c3F)c2cc1C(N)=O [Example 98] | 100 to 1000 |
| < 50 | 50 to 200 | 200 to 1000 | COc1cc2nccc(Oc3ccc(NC(=S)N4CC[C@H](F)C4)c(Cl)c3F)c2cc1C(N)=O [Example 103] | 100 to 1000 |
| < 50 | < 50 | < 50 | [2H]C([2H])([2H])NC(=S)Nc1ccc(Oc2ccnc3cc(OC)c(C(N)=O)cc23)c(F)c1Cl [Example 112] | < 100 |
| < 50 | < 50 | 50 to 200 | COc1cc2nccc(Oc3ccc(NC(=S)N4CC(F)C4)c(Cl)c3F)c2cc1C(N)=O [Example 123] | 100 to 1000 |
| < 50 | < 50 | < 50 | CCNC(=S)Nc1ccc(Oc2ccnc3cc(OC)c(C(N)=O)cc23)c(F)c1Cl [Example 124] | < 100 |
| < 50 | – | – | Cc1c(OC[C@H](C)O)cn2ncnc(Oc3ccc(NC(=O)NC4CC4)c(Cl)c3)c12 [Example 127] | < 100 |

| IC50 (VEGFR2) [nM] | IC50 (FGFR1) [nM] | IC50 (PDGFRB) [nM] | SMILES | IC50 (HUVEC) [nM] |
| --- | --- | --- | --- | --- |
| 200 to 1000 | – | – | COc1cc2nccc(Oc3ccc(Nc4c(NC5CC5)c(=O)c4=O)c(Cl)c3)c2cc1C(N)=O [Example 130] | 100 to 1000 |
| 200 to 1000 | – | – | COc1cc2nccc(Oc3ccc4nc(NC5CC5)sc4c3)c2cc1C(N)=O [Example 131] | 100 to 1000 |
| < 50 | 200 to 1000 | < 50 | COCCOc1cc2nccc(Oc3ccc(NC(=S)NC4CC4)c(Cl)c3)c2cc1C(N)=O [Example 174] | < 100 |
| < 50 | 50 to 200 | 200 to 1000 | COc1cc2nccc(Oc3ccc4c(C(=O)NC5CC5)coc4c3)c2cc1C(N)=O [Example 185] | < 100 |
| 200 to 1000 | 200 to 1000 | 200 to 1000 | COc1cc2nccc(Oc3cc(Cl)c4c(C(=O)NC5CC5)coc4c3)c2cc1C(N)=O [Example 196] | – |
| 200 to 1000 | 200 to 1000 | 200 to 1000 | COc1cc2nccc(Oc3cc4occ(C(=O)N5CCCC5)c4cc3Cl)c2cc1C(N)=O [Example 197] | – |
| 200 to 1000 | 200 to 1000 | 200 to 1000 | COc1cc2nccc(Oc3cc4occ(C(=O)N5CC(F)(F)C5)c4cc3Cl)c2cc1C(N)=O [Example 198] | – |
| 50 to 200 | 200 to 1000 | < 50 | COc1cc2nccc(Oc3cc4occ(C(=O)NC5CC5)c4cc3Cl)c2cc1C(N)=O [Example 199] | – |
| 200 to 1000 | 200 to 1000 | 200 to 1000 | COc1cc2nccc(Oc3ccc4c(C(=O)N5CC[C@@H](O)C5)coc4c3)c2cc1C(N)=O [Example 201] | – |
| 200 to 1000 | 200 to 1000 | 200 to 1000 | COc1cc2nccc(Oc3ccc4c(C(=O)N5CC[C@@H](F)C5)coc4c3)c2cc1C(N)=O [Example 202] | – |
| 200 to 1000 | 200 to 1000 | 50 to 200 | COc1cc2nccc(Oc3ccc4c(C(=O)N5CC[C@H](O)C5)coc4c3)c2cc1C(N)=O [Example 203] | – |
| 200 to 1000 | 200 to 1000 | 200 to 1000 | COc1cc2nccc(Oc3cc(Br)c4c(C(=O)N5CC(F)(F)C5)coc4c3)c2cc1C(N)=O [Example 204] | – |
| 200 to 1000 | 200 to 1000 | 200 to 1000 | COc1cc2nccc(Oc3ccc4c(C(=O)N5CC[C@H](F)C5)coc4c3)c2cc1C(N)=O [Example 205] | – |
| 200 to 1000 | 200 to 1000 | 200 to 1000 | COc1cc2nccc(Oc3ccc4c(C(=O)N5CCCC5)coc4c3)c2cc1C(N)=O [Example 206] | – |
| 50 to 200 | 200 to 1000 | < 50 | CCNC(=O)c1coc2cc(Oc3ccnc4cc(OC)c(C(N)=O)cc34)c(F)cc12 [Example 208] | – |
| 50 to 200 | 200 to 1000 | < 50 | [2H]C([2H])([2H])NC(=O)c1coc2cc(Oc3ccnc4cc(OC)c(C(N)=O)cc34)c(Cl)cc12 [Example 211] | – |
| < 50 | 50 to 200 | 50 to 200 | Cn1cncc1-c1ccc2c(Oc3ccc(NC(=S)NC4CC4)c(Cl)c3)ccnc2c1 [Example 213] | – |
| 50 to 200 | 200 to 1000 | 200 to 1000 | O=C(Nc1ccc(Oc2ccnc3cc(-c4cncn4-c4ccccc4)ccc23)c(F)c1Cl)NC1CC1 [Example 227] | – |
| 200 to 1000 | 200 to 1000 | 200 to 1000 | O=C(Nc1ccc(Oc2ccnc3cc(-c4cn(-c5ccccc5)cn4)ccc23)c(F)c1Cl)NC1CC1 [Example 228] | – |
| < 50 | < 50 | < 50 | Cc1nc(-c2ccc3c(Oc4ccc(NC(=O)NC5CC5)c(Cl)c4F)ccnc3c2)cn1C [Example 229] | – |
